In patent EP0550006B1, “Use of N-acyl derivatives of aminoalcohols for the manufacture of a medicament for the treatment of pathologies involving mast cells” (LIFEGROUP S.p.A., priority 1991, dated 1993):
No end group written: not given here.

Experiments:
[1] = system: mast cells; assay: in vivo mast cell degranulation induced by substance P, general subcutaneous administration; set-up: species or system Sprague Dawley rats; details: rat; compound 20 mg/kg subcutaneous, 30 minutes before substance P 10^-6 M s.c. in the auricular pinna; average of 500-800 cells; solvent group 12
Description: In this case 2-weeks old rats (Sprague Dawley, Charles River) were firstly subcutaneously treated with 20 mg/kg of the substances under question and after 30 minutes were exposed to the degranulation stimulus by s.c. administration of substance P (10^-6 M) in the auricular pinna. Then the rats were sacrificed and the ear pinna removed for histological assessment of mast cell degranulation by counting the number of degranulated mast cells.
The biological parameter of evaluation was the percentage of degranulated mast cells.
In Tab. 2 the obtained results are reported on an average of 500-800 cells.

[2] = water solubility; details: for solubility: water; for water solubility: result in words
[3] = organic solvent solubility; details: for solubility: organic solvent or mixture
[4] = system: mast cells; assay: in vivo mast cell degranulation induced by substance P, intradermal (topical) application on the auricular pinna; set-up: species or system Sprague Dawley rats; details: for % of degranulated mast cells: rat auricular pinna, compound 0.5 mg/kg intradermal, 10 minutes before substance P 10^-4 M intradermal, sacrifice after 30', solvent group 8
Description: After 10 minutes a local administration of substance P ( 10^-4 M), able to induce a mast cells degranulation response, was carried out still by intradermal route. […] The inhibition degree in mast cells degranulation in the tissues of the animals treated with the compounds under question. in comparison with that of animals treated only with the physiological degranulation factor (substance P) was considered as a parameter for the biological activity.

[5] = system: Peritoneal mast cells of rat; assay: in vitro mast cell degranulation induced by substance P; format: cell-based; details: compound 10^-5 M, 30 minutes incubation, then substance P 10^-4M
Description: Peritoneal mast cells of rat were taken according to the standard methodology described by Lagunoff (1975, Tech. Biochem. Biophys. Morphol., 2, pp. 289-305).
The cells were then cultured in MEM which 10% fetal calf serum was added to and then incubated in a Haereus^R incubator for 30 minutes.
The derivatives under question at the concentration of 10^-5 M were added to the incubation medium.
At the end of the incubation, the physiological degranulation stimulus represented also in the case by the substance P (10^-4M) was added.
The cells were then centrifugated in order to remove the supernatant formed by the incubation medium and were placed onto a slide after coloration with toluidine blue, for the analysis of the morphological aspect at the optical microscope.
Also under these conditions the parameter to be considered was the percentage of degranulated cells after stimulation with the Substance P.

[6] = system: inflammatory response; details: tested animal; prior art; cited from earlier work
[7] = system: inflammatory response; details: substance extracted from yolk egg, administered to man; Coburn et al 1960; cited from earlier work
[8] = system: human rheumatoid arthritis; details: Perlik et al. 1974; cited from earlier work
[9] = physchem; details: organic solvent or mixture

| Compound | solubility [2] [µg/mL] | solubility ([3]; ethanol) [µg/mL] | water solubility [2] | solubility ([3]; dmso) [µg/mL] | % of degranulated mast cells [1] [%] | other results |
| --- | --- | --- | --- | --- | --- | --- |
| CCCCCCCCCCCCCCCCCC(=O)NCCO [Example 4, N-(2-hydroxyethyl)-stearoylamide] | – | – | – | – | 60 | solubility ([9]; chloroform): > 5000 µg/mL |
| CCCCCCCCCCCC(=O)NCCO [Example 5, N-(2-hydroxyethyl)-lauroylamide] | – | – | poorly soluble | > 10000 | 54 | solubility ([3]; chloroform): > 10000 µg/mL |
| CCCCCCCCCCCC(=O)N(CCO)CCO [Example 6, N,N-bis(2-hydroxyethyl)-lauroylamide] | – | – | poorly soluble | > 10000 | 28 | solubility ([3]; chloroform): > 10000 µg/mL |
| O=C(NCCO)c1ccccc1 [Example 8, N-(2-hydroxyethyl)-benzoylamide] | > 10000 | > 10000 | – | > 10000 | 48.8 | – |
| C[C@H](CCC(=O)NCCO)[C@H]1CC[C@H]2[C@@H]3CC[C@@H]4C[C@H](O)CC[C@]4(C)[C@H]3C[C@H](O)[C@]12C [Example 12, N-(2-hydroxyethyl)-desoxycholamide] | – | – | – | – | – | solubility ([9]; dmso): > 10000 µg/mL |
| O=C(NCCO)c1ccccc1O [Example 13, N-(2-hydroxethyl)-salicylamide] | – | – | – | – | 38 | – |
| O=C(NCCO)c1ccncc1 [Example 14, N-(2-hydroxyethyl)-isonicotinamide] | > 10000 | – | – | – | – | solubility ([3]; methanol): > 10000 µg/mL |
| substance P (RPKPQQFFGLM; ends and bridges not checked; UniProt P20366 58-68, looked up) [reference compound] | – | – | – | – | 92 | % of degranulated mast cells [4]: 94%; mast cells degranulation (morphological analysis) ([4]; rat pinna, intradermal, result in words): induced a degranulation in the majority of mast cells; % of degranulated mast cells [5]: 96% |

Further lines, with some results ahead:

| solubility [2] [µg/mL] | solubility ([3]; ethanol) [µg/mL] | water solubility [2] | solubility ([3]; dmso) [µg/mL] | Compound | % of degranulated mast cells [1] [%] | other results |
| --- | --- | --- | --- | --- | --- | --- |
| > 10000 | > 10000 | – | – | O=C(CCCCC1CCSS1)NCCO (racemic) [Example 15, N-(2-hydroxyethy)-DL-α-lipoamide] | 40 | – |
| – | – | insoluble | – | CCCCCCCCCCCCCCCC(=O)NCCO [Example 1, N-palmitoylethanolamide] | 65 | % of degranulated mast cells [4]: 50%; % of degranulated mast cells [5]: 52%; inhibition of the inflammatory response [6]: generic activity in inhibiting the inflammatory response; therapeutic effect [7]: not significant; therapeutic efficacy [8]: beneficial effects were not so remarkable; solubility in organic solvents ([3]; solvents in which soluble, in words): hot methanol, CHCl3, DMSO |
| – | – | poorly soluble | > 10000 | CCCCCCCCCCCCCCCC(=O)N(CCO)CCO [Example 2, N,N-bis(2-hydroxyethyl)-palmitamide] | 48 | % of degranulated mast cells [4]: 35%; % of degranulated mast cells [5]: 30% |
| – | – | poorly soluble | > 3000 | CCCCCCCCCCCCCCCC(=O)NCC(C)O (stereo not drawn) [Example 3, N-(2-hydroxypropyl)-palmitamide] | 49.5 | solubility ([3]; n-octanol): > 10000 µg/mL |
| > 10000 | > 10000 | – | > 10000 | O=C(CCCO)NCCO [Example 7, N-(2-hydroxyethyl)-4-hydroxybutirramide] | – | – |
| > 10000 | > 10000 | – | > 10000 | O=C(c1ccccc1)N(CCO)CCO [Example 9, N,N -bis-(2-hydroxyethyl)-benzoylamide] | 36.8 | – |
| – | – | poorly soluble | > 10000 | CCCCCCCC/C=C\CCCCCCCC(=O)N(CCO)CCO [Example 10, N,N -bis-(2-hydroxyethyl)-oleoylamide] | 44 | solubility ([3]; chloroform): > 10000 µg/mL |
| – | > 10000 | poorly soluble | – | CCCCC/C=C\C/C=C\CCCCCCCC(=O)N(CCO)CCO [Example 11, N,N -bis-(2-hydroxyethyl)-linoleoylamide] | 71 | solubility ([3]; chloroform): > 10000 µg/mL |
